US20220251141A1, “IMMUNOMODULATORS” (Bristol-Myers Squibb Company, priority 2019, published 2022)
Bridge positions count the residues as written; N and C are the ends. Square brackets hold non-standard residues; d marks the D form. Peptide text beside a SMILES is read from it. * marks the point of attachment. Trp(1-CH2COOH) = N[C@@H](Cc1cn(CC(=O)O)c2ccccc12)C(=O)O; Trp(1-Me) = Cn1cc(C[C@H](N)C(=O)O)c2ccccc21; Phe(4-F) = N[C@@H](Cc1ccc(F)cc1)C(=O)O; Hyp = O=C(O)[C@@H]1C[C@@H](O)CN1; NMeNle = CCCC[C@H](NC)C(=O)O; Pen = CC(C)(S)[C@H](N)C(=O)O; Pip = O=C(O)[C@@H]1CCCCN1; Dab = NCC[C@H](N)C(=O)O; Dap = NC[C@H](N)C(=O)O; Boc = CC(C)(C)OC(=O)*; Piv = CC(C)(C)C(=O)*

Target: T1, PD-1/PD-L1 (Homo sapiens, UniProt Q9NZQ7)
T1 construct: TVMV protease site linker (C); made in house; host or cells: HEK293T cells
Test: PD-1/PD-L1 Homogenous Time-Resolved Fluorescence (HTRF) binding assay
Conditions: PD-L1-His 10 nM final, PD-1-Ig 20 nM final; inhibitors pre-incubated with PD-L1-His for 15 m
Procedure, shortened: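 Compounds pre-incubated 15 min with human PD-L1(18-239)-His (10 nM final), then PD-1(25-167)-Ig (20 nM final) added for 15 min, in dPBS with 0.1% BSA and 0.05% Tween-20. Eu-cryptate anti-Ig (1 nM) and APC anti-His (20 nM) added, 30 min equilibration, 665/620 nm ratio read; IC50 reported.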

SMILES | IC50
CCCC[C@H]1C(=O)N(C)[C@@H](CCCC)C(=O)N[C@@H](CC(C)C)C(=O)N[C@H](C(N)=O)CSCC(=O)N[C@@H](Cc2ccc(F)cc2)C(=O)N2CCCC[C@H]2C(=O)N[C@@H](CC(=O)O)C(=O)N2CCC[C@H]2C(=O)N[C@@H](CNC(=O)OC(C)(C)C)C(=O)N[C@@H](CC(C)C)C(=O)N2C[C@H](O)C[C@H]2C(=O)N[C@@H](Cc2c[nH]c3ccccc23)C(=O)N[C@@H](CCNC(=O)OC(C)(C)C)C(=O)N[C@@H](Cc2cn(CC(=O)O)c3ccccc23)C(=O)N1C [Example 20020] ({CH2CO}-[Phe(4-F)][Pip]DP[Dap](Boc)L[Hyp]W[Dab](Boc)[Trp(1-CH2COOH)][NMeNle][NMeNle]LC-NH2; thioether N-14) | 6.9 nM
CCCC[C@H]1C(=O)N(C)[C@@H](CCCC)C(=O)N[C@@H](CCC(=O)O)C(=O)N[C@H](C(N)=O)CSCC(=O)N[C@@H](Cc2ccc(F)cc2)C(=O)N2CCCC[C@H]2C(=O)N[C@@H](CC(N)=O)C(=O)N2CCC[C@H]2C(=O)N[C@@H](CNC(=O)C(C)(C)C)C(=O)N[C@@H](CC(C)C)C(=O)N2C[C@H](O)C[C@H]2C(=O)N[C@@H](Cc2c[nH]c3ccccc23)C(=O)N[C@@H](CCNC(=O)C(C)(C)C)C(=O)N[C@@H](Cc2cn(CC(=O)O)c3ccccc23)C(=O)N1C [Example 20030] ({CH2CO}-[Phe(4-F)][Pip]NP[Dap](Piv)L[Hyp]W[Dab](Piv)[Trp(1-CH2COOH)][NMeNle][NMeNle]EC-NH2; thioether N-14) | 7.8 nM
CCCC[C@H]1C(=O)N(C)[C@@H](CCCC)C(=O)N[C@@H](CC(C)C)C(=O)N[C@H](C(N)=O)CSCC(=O)N[C@@H](Cc2ccc(F)cc2)C(=O)N2CCCC[C@H]2C(=O)N[C@@H](CC(=O)O)C(=O)N2CCC[C@H]2C(=O)N[C@@H](CNC(=O)C(C)(C)C)C(=O)N[C@@H](CC(C)C)C(=O)N2CCC[C@H]2C(=O)N[C@@H](Cc2c[nH]c3ccccc23)C(=O)N[C@@H](CCNC(=O)C(C)(C)C)C(=O)N[C@@H](Cc2cn(CC(=O)O)c3ccccc23)C(=O)N1C [Example 20040] ({CH2CO}-[Phe(4-F)][Pip]DP[Dap](Piv)LPW[Dab](Piv)[Trp(1-CH2COOH)][NMeNle][NMeNle]LC-NH2; thioether N-14) | 8.3 nM
CCCC[C@H]1C(=O)N(C)[C@@H](CCCC)C(=O)N[C@@H](CC(C)C)C(=O)N[C@H](C(N)=O)CSCC(=O)N[C@@H](Cc2ccc(F)cc2)C(=O)N2CCCC[C@H]2C(=O)N[C@@H](CC(=O)O)C(=O)N2CCC[C@H]2C(=O)N[C@@H](CNC(=O)C(C)(C)C)C(=O)N[C@@H](CC(C)C)C(=O)N2C[C@H](O)C[C@H]2C(=O)N[C@@H](Cc2c[nH]c3ccccc23)C(=O)N[C@@H](CCN)C(=O)N[C@@H](Cc2cn(CC(=O)O)c3ccccc23)C(=O)N1C [Example 20050] ({CH2CO}-[Phe(4-F)][Pip]DP[Dap](Piv)L[Hyp]W[Dab][Trp(1-CH2COOH)][NMeNle][NMeNle]LC-NH2; thioether N-14) | 10.4 nM
CCCC[C@H]1C(=O)N(C)[C@@H](CCCC)C(=O)N[C@@H](CC(C)C)C(=O)N[C@H](C(N)=O)C(C)(C)SCC(=O)N[C@@H](Cc2ccc(F)cc2)C(=O)N2CCCC[C@H]2C(=O)N[C@@H](CC(=O)O)C(=O)N2CCC[C@H]2C(=O)N[C@@H](CNC(=O)C(C)(C)C)C(=O)N[C@@H](CC(C)C)C(=O)N2C[C@H](O)C[C@H]2C(=O)N[C@@H](Cc2c[nH]c3ccccc23)C(=O)N[C@@H](CCN)C(=O)N[C@@H](Cc2cn(CC(=O)O)c3ccccc23)C(=O)N1C [Example 20060] ({CH2CO}-[Phe(4-F)][Pip]DP[Dap](Piv)L[Hyp]W[Dab][Trp(1-CH2COOH)][NMeNle][NMeNle]L[Pen]-NH2; thioether N-14) | 10.4 nM
CCCC[C@H]1C(=O)N(C)[C@@H](CCCC)C(=O)N[C@@H](CCC(=O)O)C(=O)N[C@H](C(N)=O)CSCC(=O)N[C@@H](Cc2ccc(F)cc2)C(=O)N2CCCC[C@H]2C(=O)N[C@@H](CC(=O)O)C(=O)N2CCC[C@H]2C(=O)N[C@@H](CNC(=O)C(C)(C)C)C(=O)N[C@@H](CC(C)C)C(=O)N2C[C@H](O)C[C@H]2C(=O)N[C@@H](Cc2c[nH]c3ccccc23)C(=O)N[C@@H](CCNC(=O)C(C)(C)C)C(=O)N[C@@H](Cc2cn(CC(=O)O)c3ccccc23)C(=O)N1C [Example 20070] ({CH2CO}-[Phe(4-F)][Pip]DP[Dap](Piv)L[Hyp]W[Dab](Piv)[Trp(1-CH2COOH)][NMeNle][NMeNle]EC-NH2; thioether N-14) | 10.5 nM
CCCC[C@H]1C(=O)N(C)[C@@H](CCCC)C(=O)N[C@@H](C(C)C)C(=O)N[C@H](C(N)=O)CSCC(=O)N[C@@H](Cc2ccc(F)cc2)C(=O)N2CCCC[C@H]2C(=O)N[C@@H](CC(=O)O)C(=O)N2CCC[C@H]2C(=O)N[C@@H](CNC(=O)C(C)(C)C)C(=O)N[C@@H](CCCCN)C(=O)N2C[C@H](O)C[C@H]2C(=O)N[C@@H](Cc2c[nH]c3ccccc23)C(=O)N[C@@H](CCNC(=O)C(C)(C)C)C(=O)N[C@@H](Cc2cn(CC(=O)O)c3ccccc23)C(=O)N1C [Example 20080] ({CH2CO}-[Phe(4-F)][Pip]DP[Dap](Piv)K[Hyp]W[Dab](Piv)[Trp(1-CH2COOH)][NMeNle][NMeNle]VC-NH2; thioether N-14) | 10.7 nM
CCCC[C@H]1C(=O)N(C)[C@@H](CCCC)C(=O)N[C@@H](CC(C)C)C(=O)N[C@H](C(N)=O)CSCC(=O)N[C@@H](Cc2ccc(F)cc2)C(=O)N2CCCC[C@H]2C(=O)N[C@@H](CC(=O)O)C(=O)N2CCC[C@H]2C(=O)N[C@@H](CNC(=O)C(C)(C)C)C(=O)N[C@@H](CCCCN)C(=O)N2C[C@H](O)C[C@H]2C(=O)N[C@@H](Cc2c[nH]c3ccccc23)C(=O)N[C@@H](CCNC(=O)C(C)(C)C)C(=O)N[C@@H](Cc2cn(CC(=O)O)c3ccccc23)C(=O)N1C [Example 20090] ({CH2CO}-[Phe(4-F)][Pip]DP[Dap](Piv)K[Hyp]W[Dab](Piv)[Trp(1-CH2COOH)][NMeNle][NMeNle]LC-NH2; thioether N-14) | 11.1 nM
CCCC[C@H]1C(=O)N(C)[C@@H](CCCC)C(=O)N[C@@H](CCC(=O)O)C(=O)N[C@H](C(N)=O)CSCC(=O)N[C@@H](Cc2ccc(F)cc2)C(=O)N2CCCC[C@H]2C(=O)N[C@@H](CC(N)=O)C(=O)N2CCC[C@H]2C(=O)N[C@@H](CNC(=O)C(C)(C)C)C(=O)N[C@@H](CC(C)C)C(=O)N2CCC[C@H]2C(=O)N[C@@H](Cc2c[nH]c3ccccc23)C(=O)N[C@@H](CCN)C(=O)N[C@@H](Cc2cn(CC(=O)O)c3ccccc23)C(=O)N1C [Example 20110] ({CH2CO}-[Phe(4-F)][Pip]NP[Dap](Piv)LPW[Dab][Trp(1-CH2COOH)][NMeNle][NMeNle]EC-NH2; thioether N-14) | 11.7 nM
CCCC[C@H]1C(=O)N(C)[C@@H](CCCC)C(=O)N[C@@H](CC(C)C)C(=O)N[C@H](C(N)=O)C(C)(C)SCC(=O)N[C@@H](Cc2ccc(F)cc2)C(=O)N2CCCC[C@H]2C(=O)N[C@@H](CC(N)=O)C(=O)N2CCC[C@H]2C(=O)N[C@@H](CNC(=O)C(C)(C)C)C(=O)N[C@@H](CC(C)C)C(=O)N2C[C@H](O)C[C@H]2C(=O)N[C@@H](Cc2c[nH]c3ccccc23)C(=O)N[C@@H](CCN)C(=O)N[C@@H](Cc2cn(C)c3ccccc23)C(=O)N1C [Example 20120] ({CH2CO}-[Phe(4-F)][Pip]NP[Dap](Piv)L[Hyp]W[Dab][Trp(1-Me)][NMeNle][NMeNle]L[Pen]-NH2; thioether N-14) | 11.8 nM
